According to PubChem BioAssay AID2060627 (Molecular Pharmacology Branch, DTP, NCI, 2025):
One block for each molecule: values may come before it.

System: 156681-154-R-J1-PDC complex spheroid viability
Assay: Anticancer human tumor 156681-154-R-J1-PDC patient-derived melanoma cell line growth inhibition [CLK]
Settings: for IC50: curve of first compound; for viability, T/C: stronger effect = lower value
How it was run: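 Multi-cell-type spheroids combined patient-derived tumor cells with HUVEC endothelial cells and human mesenchymal stem cells. Paired agents were dosed in half-log steps down from about clinical Cmax, or from 10 microM where Cmax was unknown.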

[1] = second compound 0.0316 µM, first compound 0.0316 µM
[2] = second compound 0.0316 µM, first compound 0.1 µM
[3] = second compound 0.0316 µM, first compound 0.316 µM
[4] = second compound 0.0316 µM, first compound 1 µM
[5] = second compound 0.0316 µM, first compound 3.16 µM
[6] = second compound 0.0316 µM, first compound 10 µM
[7] = second compound 0.1 µM, first compound 0.0316 µM
[8] = second compound 0.1 µM, first compound 0.1 µM
[9] = second compound 0.1 µM, first compound 0.316 µM
[10] = second compound 0.1 µM, first compound 1 µM
[11] = second compound 0.1 µM, first compound 3.16 µM
[12] = second compound 0.1 µM, first compound 10 µM
[13] = second compound 0.316 µM, first compound 0.0316 µM
[14] = second compound 0.316 µM, first compound 0.1 µM
[15] = second compound 0.316 µM, first compound 0.316 µM
[16] = second compound 0.316 µM, first compound 1 µM
[17] = second compound 0.316 µM, first compound 3.16 µM
[18] = second compound 0.316 µM, first compound 10 µM
[19] = second compound 1 µM, first compound 0.0316 µM
[20] = second compound 1 µM, first compound 0.1 µM
[21] = second compound 1 µM, first compound 0.316 µM
[22] = second compound 1 µM, first compound 1 µM
[23] = second compound 1 µM, first compound 3.16 µM
[24] = second compound 1 µM, first compound 10 µM
[25] = second compound 3.16 µM, first compound 0.0316 µM
[26] = second compound 3.16 µM, first compound 0.1 µM
[27] = second compound 3.16 µM, first compound 0.316 µM
[28] = second compound 3.16 µM, first compound 1 µM
[29] = second compound 3.16 µM, first compound 3.16 µM
[30] = second compound 3.16 µM, first compound 10 µM
[31] = second compound 10 µM, first compound 0.0316 µM
[32] = second compound 10 µM, first compound 0.1 µM
[33] = second compound 10 µM, first compound 0.316 µM
[34] = second compound 10 µM, first compound 1 µM
[35] = second compound 10 µM, first compound 3.16 µM
[36] = second compound 10 µM, first compound 10 µM
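Further: spheroids exposed to the agents for seven days.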
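Wherever viability, T/C is given: 100% = DMSO vehicle control viability.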

IC50 (second compound 0.0316 µM): < 0.949 nM | IC50 (second compound 0.1 µM): < 0.949 nM | IC50 (second compound 0.316 µM): < 0.949 nM | IC50 (second compound 1 µM): < 0.949 nM | IC50 (second compound 3.16 µM): < 0.949 nM | IC50 (second compound 10 µM): < 0.949 nM
Structure (SMILES): CC(C)CC(NC(=O)C(Cc1ccccc1)NC(=O)c1cnccn1)B(O)O (stereo unspecified) + CNC(=O)c1ccc(Nc2nc(OC3CCCC3)c3c(-c4ccc5nc(C)oc5c4)c[nH]c3n2)c(OC)c1
viability, T/C (second compound 0.0316 µM, first compound 0.000949 µM): 9.11% | viability, T/C (second compound 0.0316 µM, first compound 0.003 µM): 2.74% | viability, T/C (second compound 0.0316 µM, first compound 0.00949 µM): 0.21% | viability, T/C (second compound 0.0316 µM, first compound 0.03 µM): 0.23% | viability, T/C (second compound 0.0316 µM, first compound 0.0949 µM): 0.18% | viability, T/C (second compound 0.0316 µM, first compound 0.3 µM): 1.15% | viability, T/C (second compound 0.1 µM, first compound 0.000949 µM): 15.1% | viability, T/C (second compound 0.1 µM, first compound 0.003 µM): 0.3% | viability, T/C (second compound 0.1 µM, first compound 0.00949 µM): 0.24% | viability, T/C (second compound 0.1 µM, first compound 0.03 µM): 0.21% | viability, T/C (second compound 0.1 µM, first compound 0.0949 µM): 0.18% | viability, T/C (second compound 0.1 µM, first compound 0.3 µM): 1.03% | viability, T/C (second compound 0.316 µM, first compound 0.000949 µM): 16.6% | viability, T/C (second compound 0.316 µM, first compound 0.003 µM): 0.88% | viability, T/C (second compound 0.316 µM, first compound 0.00949 µM): 0.24% | viability, T/C (second compound 0.316 µM, first compound 0.03 µM): 0.19% | viability, T/C (second compound 0.316 µM, first compound 0.0949 µM): 0.15% | viability, T/C (second compound 0.316 µM, first compound 0.3 µM): 0.15% | viability, T/C (second compound 1 µM, first compound 0.000949 µM): 15.8% | viability, T/C (second compound 1 µM, first compound 0.003 µM): 0.29% | viability, T/C (second compound 1 µM, first compound 0.00949 µM): 1.19% | viability, T/C (second compound 1 µM, first compound 0.03 µM): 0.21% | viability, T/C (second compound 1 µM, first compound 0.0949 µM): 0.19% | viability, T/C (second compound 1 µM, first compound 0.3 µM): 1.63% | viability, T/C (second compound 3.16 µM, first compound 0.000949 µM): 14.2% | viability, T/C (second compound 3.16 µM, first compound 0.003 µM): 1% | viability, T/C (second compound 3.16 µM, first compound 0.00949 µM): 1.37% | viability, T/C (second compound 3.16 µM, first compound 0.03 µM): 0.21% | viability, T/C (second compound 3.16 µM, first compound 0.0949 µM): 0.2% | viability, T/C (second compound 3.16 µM, first compound 0.3 µM): 0.39% | viability, T/C (second compound 10 µM, first compound 0.000949 µM): 14.7% | viability, T/C (second compound 10 µM, first compound 0.003 µM): 1.3% | viability, T/C (second compound 10 µM, first compound 0.00949 µM): 0.27% | viability, T/C (second compound 10 µM, first compound 0.03 µM): 0.31% | viability, T/C (second compound 10 µM, first compound 0.0949 µM): 0.26% | viability, T/C (second compound 10 µM, first compound 0.3 µM): 0.15%

IC50 (second compound 0.0316 µM): 1420 nM | IC50 (second compound 0.1 µM): 846 nM | IC50 (second compound 0.316 µM): 757 nM | IC50 (second compound 1 µM): 600 nM | IC50 (second compound 3.16 µM): 166 nM | IC50 (second compound 10 µM): 43 nM
Structure (SMILES): CC1COCCN1c1cc(C2(S(C)(=N)=O)CC2)nc(-c2ccnc3[nH]ccc23)n1 (stereo unspecified) + CNC(=O)c1ccc(Nc2nc(OC3CCCC3)c3c(-c4ccc5nc(C)oc5c4)c[nH]c3n2)c(OC)c1
viability, T/C [1]: 102% | viability, T/C [2]: 110% | viability, T/C [3]: 86.5% | viability, T/C [4]: 61% | viability, T/C [5]: 27.7% | viability, T/C [6]: 14.3% | viability, T/C [7]: 60% | viability, T/C [8]: 76.3% | viability, T/C [9]: 71.9% | viability, T/C [10]: 45.1% | viability, T/C [11]: 23.3% | viability, T/C [12]: 13.1% | viability, T/C [13]: 68.1% | viability, T/C [14]: 70.3% | viability, T/C [15]: 66.6% | viability, T/C [16]: 44.2% | viability, T/C [17]: 24.8% | viability, T/C [18]: 17.8% | viability, T/C [19]: 63.4% | viability, T/C [20]: 55.5% | viability, T/C [21]: 54.7% | viability, T/C [22]: 45.4% | viability, T/C [23]: 16% | viability, T/C [24]: 7.92% | viability, T/C [25]: 61.8% | viability, T/C [26]: 49.1% | viability, T/C [27]: 42.9% | viability, T/C [28]: 43.4% | viability, T/C [29]: 14.4% | viability, T/C [30]: 8.47% | viability, T/C [31]: 51.5% | viability, T/C [32]: 47.3% | viability, T/C [33]: 30.1% | viability, T/C [34]: 30.7% | viability, T/C [35]: 15.5% | viability, T/C [36]: 7.43%

IC50 (second compound 0.0316 µM): > 10000 nM | IC50 (second compound 0.1 µM): > 10000 nM | IC50 (second compound 0.316 µM): > 10000 nM | IC50 (second compound 1 µM): 481 nM | IC50 (second compound 3.16 µM): < 31.6 nM | IC50 (second compound 10 µM): < 31.6 nM
Structure (SMILES): O=C(c1cc(Cc2n[nH]c(=O)c3ccccc23)ccc1F)N1CCN(C(=O)C2CC2)CC1 + CNC(=O)c1ccc(Nc2nc(OC3CCCC3)c3c(-c4ccc5nc(C)oc5c4)c[nH]c3n2)c(OC)c1
viability, T/C [1]: 98.2% | viability, T/C [2]: 108% | viability, T/C [3]: 92.3% | viability, T/C [4]: 103% | viability, T/C [5]: 92.5% | viability, T/C [6]: 79.3% | viability, T/C [7]: 65.4% | viability, T/C [8]: 72.5% | viability, T/C [9]: 65.4% | viability, T/C [10]: 80.9% | viability, T/C [11]: 82.8% | viability, T/C [12]: 60.5% | viability, T/C [13]: 78.9% | viability, T/C [14]: 69.3% | viability, T/C [15]: 76.3% | viability, T/C [16]: 71% | viability, T/C [17]: 70.3% | viability, T/C [18]: 54.3% | viability, T/C [19]: 59.7% | viability, T/C [20]: 48.5% | viability, T/C [21]: 48.9% | viability, T/C [22]: 47.9% | viability, T/C [23]: 42.8% | viability, T/C [24]: 25.8% | viability, T/C [25]: 47.8% | viability, T/C [26]: 48.2% | viability, T/C [27]: 47.9% | viability, T/C [28]: 45.2% | viability, T/C [29]: 35.2% | viability, T/C [30]: 20.2% | viability, T/C [31]: 50.6% | viability, T/C [32]: 37% | viability, T/C [33]: 38.6% | viability, T/C [34]: 43.1% | viability, T/C [35]: 27.5% | viability, T/C [36]: 15.6%
